Here are results for one compound from patent US20060078919A1, “Diagnostic test kit and methods of diagnosis and treatment of helicobacter SPP. associated infections” (Harry C. Gurney Janice Gurney, priority 2004, published 2006).

The test system of the assay is Helicobacter infection. The experiment in a line: Vac A treatment of patients with pemphygus, allergic dermatitis and atopy. The assay is classed as in vivo. Particulars: more chronic and persistent cases, 25 to 75 mg bid. The procedure:
Vacuolating Toxin A (recombinant Vac A; Austral Biologicals, catalog number HPA-5010-4) at 0.01 mg/ml in bacteriostatic water and 0.2 ml was injected subcutaneously 2-6 times per day at intervals of at least one hour to patients with various conditions associated with evidence of Helicobacter infection.

As to `CN(C)CCOC(c1ccccc1)c1ccccc1` [diphenhydramine], the “use as supplement to Vac A therapy” value is “used successfully”.
